According to patent publication US20150126467A1, “USE OF ALGINATE OLIGOMERS TO ENHANCE THE EFFECTS OF ANTIFUNGAL AGENTS” (AlgiIPharma AS, priority 2011, published 2015):
In brackets after ≈: the same amount, converted by molar mass. Like-named read-outs stand apart in the source and are kept apart here.

Key:
[1] = system: various Candida species and strains; experiment: Robotic MIC assay, summary over all strains (Example 2); type: cell-based; settings: all species and strains tested
Method: The robotic assay described in Example 1 was employed in this Example. Strains were grown in Mueller-Hinton broth (LAB114 from Lab M Limited) and MIC values (μg ml-1) were determined for each antifungal after incubation for 48 h in the presence of 0, 2, 6 and 10% OligoG CF-5/20 G-fragments. […] OligoG CF-5/20 G-fragments were provided by AlgiPharma AS, Norway.
Candida strains used were as follows: • C. albicans CCUG 39343 (strain from culture collection) • C. parapsillosis ATCC 22019T (strain from culture collection) • C. krusei 141/03 (candidosis) • C. krusei 249/03(2) (ulceration) • C. lusitaniae 994/01(2) (candidosis) • C. tropicalis 12 (vaginal) • C. tropicalis 75 (vaginal) • C. tropicalis 519468 (urinary) • C. tropicalis 544123 (urinary) • C. tropicalis 250/03 (candidosis) • C. tropicalis AG1 (oral) • C. tropicalis T2.2 (oral)

[2] = system: C. parapsillosis ATCC 22019T; experiment: Standard MIC testing in RPMI medium (Example 3); type: cell-based, Candida parapsilosis; settings: Lodderomyces parapsilosis, ATCC2019, 48 h, C. Parapsillosis ATCC 2019^T, read-out: Minimum Inhibitory Concentration (MIC)
Method: (§1) Following retrieval from −80° C. storage, fungal colonies were grown on blood agar with 5% sheep blood and were used to inoculate tryptone soya broth (TSB) for overnight growth. […] Fungal cultures at 0.5 McFarland standard were diluted ten-fold in RPMI medium and 5 μl added to the media containing wells of the microtiter plates. Plates were wrapped in parafilm and incubated at 34° C. for 48 hours. MIC values were determined as the lowest concentration at which there was no visible growth.

[3] = system: C. krusei 141/03 (candidosis); experiment: Standard MIC testing in RPMI medium (Example 3); type: cell-based, Candida krusei; settings: Pichia kudriavzevii, 48 h, read-out: Minimum Inhibitory Concentration (MIC)
Method: as §1

[4] = system: C. lusitaniae 994/01(2) (candidosis); experiment: Standard MIC testing in RPMI medium (Example 3); type: cell-based, Candida lusitaniae; settings: 48 h
Method: as §1

[5] = system: C. tropicalis 519468 (urinary); experiment: Standard MIC testing in RPMI medium (Example 3); type: cell-based; settings: Candida tropicalis, 48 h, read-out: Minimum Inhibitory Concentration (MIC)
Method: (§2) The Minimum Inhibitory Concentration assay used in this Example was based on Jorgensen et al. (Manual of Clinical Microbiology, 7th ed. Washington, D.C: American Society for Microbiology, 1999; 1526-43). Following retrieval from −80° C. storage, fungal colonies were grown on blood agar with 5% sheep blood and were used to inoculate tryptone soya broth (TSB) for overnight growth. […] Fungal cultures at 0.5 McFarland standard were diluted ten-fold in RPMI medium and 5 μl added to the media containing wells of the microtiter plates. Plates were wrapped in parafilm and incubated at 34° C. for 48 hours. MIC values were determined as the lowest concentration at which there was no visible growth.

[6] = system: C. tropicalis 250/03 (candidosis); experiment: Standard MIC testing in RPMI medium (Example 3); type: cell-based; settings: Candida tropicalis, 48 h, read-out: Minimum Inhibitory Concentration (MIC)
Method: as §2

MIC ([2]; 0% OligoG)	MIC ([2]; 2% OligoG)	MIC ([2]; 6% OligoG)	MIC ([2]; 10% OligoG)	MIC ([3]; 0% OligoG)	MIC ([3]; 2% OligoG)	MIC ([3]; 6% OligoG)	MIC ([3]; 10% OligoG)	Minimum Inhibitory Concentration (MIC) ([4]; 0% OligoG)	Minimum Inhibitory Concentration (MIC) ([4]; 6% OligoG)	Minimum Inhibitory Concentration (MIC) ([4]; 10% OligoG)	MIC ([4]; Clavispora lusitaniae, 2% OligoG, read-out: Minimum Inhibitory Concentration (MIC))	MIC ([5]; 6% OligoG)	MIC ([5]; 10% OligoG)	MIC ([6]; 0% OligoG)	MIC ([6]; 2% OligoG)	MIC ([6]; 6% OligoG)	MIC ([6]; 10% OligoG)	Compound	effect of addition of OligoG CF-5/20 on MIC values [1]
–	–	–	–	–	–	–	–	–	–	–	–	–	–	–	–	–	–	C[C@@H]1[C@H](O)[C@@H](C)/C=C/C=C/CC/C=C/C=C/C=C/C=C/C(O[C@H]2O[C@H](C)[C@@H](O)[C@H](N)[C@@H]2O)CC2O[C@](O)(CC(O)C(O)CCC(O)CC(O)CC(O)CC(=O)O[C@H]1C)CC(O)C2C(=O)O (stereo partly shown) [Nystatin, nystatin]	reduced
2 µg/mL (≈ 6.53 µM)	2 µg/mL (≈ 6.53 µM)	2 µg/mL (≈ 6.53 µM)	1 µg/mL (≈ 3.27 µM)	128 µg/mL (≈ 418 µM)	64 µg/mL (≈ 209 µM)	64 µg/mL (≈ 209 µM)	32 µg/mL (≈ 104 µM)	2 µg/mL	2 µg/mL	2 µg/mL	2 µg/mL (≈ 6.53 µM)	2 µg/mL (≈ 6.53 µM)	1 µg/mL (≈ 3.27 µM)	4 µg/mL (≈ 13.1 µM)	4 µg/mL (≈ 13.1 µM)	4 µg/mL (≈ 13.1 µM)	2 µg/mL (≈ 6.53 µM)	OC(Cn1cncn1)(Cn1cncn1)c1ccc(F)cc1F [Fluconazole, fluconazole]	–
